Earlier results, collected in patent publication US9872864B2, “Sustained release composition of prostacyclin” (priority 2011, dated 2018).

Conditions: background statement

half-life: 4 h
Compound: CCCCC[C@H](O)CC[C@@H]1[C@H]2Cc3cccc(OCC(=O)O)c3C[C@H]2C[C@H]1O [treprostinil]
